This is an account of results in PubChem BioAssay (NCI).

What all share (test): DTP human tumour cell line panel, 48 h
The test system of assay [1] is SK-MEL-28 melanoma.
For assay [2], the system named is UACC-257 melanoma.
Assay [3] deals with IGROV1 ovarian.
Assay [4] relates to UACC-62 melanoma.
Assay [5] deals with NCI-H23 lung.
Assay [6] has as its system U251 CNS.
Assay [7] relates to K-562 leukemia.
Assay [8] concerns HT29 colon.
Assay [9] has as its system MOLT-4 leukemia.
In assay [10] the test system is SF-539 CNS.

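Cells were grown in 96-well plates and exposed to each compound for 48 hours at five concentrations; endpoints were interpolated linearly between bracketing concentrations, or set to the highest concentration if not reached. Abbreviation: GI50, concentration required for 50% inhibition of growth. The concentration for full growth arrest is given as TGI.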

The GI50 is the concentration that inhibits growth by half. In general, TGI refers to the concentration at which net growth stops.

Turning to `[Cl][Hg][c]1cc[c]([Hg][Cl])o1`, the GI50 in [1] is 5.6 µM; in [2] it was 7.93 µM; in assay [3] it was 1.93 µM; in assay [4], 3.46 µM; in [5] it was 7.91 µM; in assay [6] it was 0.737 µM. Besides, the GI50 in assay [7] was 1.24 µM; in [8] it was 2.99 µM; in assay [9], 1.58 µM; in assay [10], 3.08 µM. Moreover, the TGI in [1] was 19.9 µM; in assay [2], 28.8 µM; in assay [3], 10.1 µM; in assay [4], 16.2 µM; in assay [5], 92.1 µM; in assay [6], 2.46 µM. The concentration for total growth inhibition (TGI) in assay [7] turned out to be 11.8 µM; in assay [8], 9.88 µM; in [9] it was 8.59 µM; in assay [10], 13.8 µM.
Regarding `OCC1OC(c2nc(C3=NCCCN3)cs2)C(O)C1O` (stereo not given), the TGI in assay [1], in assay [2], in assay [3], in assay [4], in [5] and in [6] was greater than 100 µM each time. The TGI in [7], in assay [8], in assay [9] and in assay [10] was greater than 100 µM in each case.
For `N#CC(C(=O)C(=O)C(C#N)c1ccc(Br)cc1)c1ccc(Br)cc1` (stereo not given), the TGI in [1] is 28.9 µM; in [2], 25.1 µM; in assay [3], 30 µM; in assay [4], 7.03 µM; in assay [5] it was 14.1 µM; in assay [6], 23.8 µM. In addition, the TGI in assay [7] is greater than 100 µM; in [8] it was 22.8 µM; in [9] it was 47.1 µM; in [10], 29.4 µM.
As for `CCOC(=O)C(Cc1ccc(CCCC(=O)NCCC(=O)Nc2ccc3nc(C)sc3c2)cc1)C(=O)OCC`, the GI50 in assay [1] is 28.7 µM; in [2] it was 34.7 µM; in [3], 64.8 µM; in assay [4] it was 26.2 µM; in assay [5], 28.9 µM; in assay [6], greater than 81.4 µM. For the same compound, the GI50 in [7] is 47.3 µM; in assay [8], greater than 64.2 µM; in assay [9], 21.3 µM; in assay [10], 42.5 µM. Moreover, the TGI in assay [1] was greater than 96.7 µM; in assay [2] it was greater than 87.1 µM; in [3], greater than 100 µM; in assay [4] it was greater than 69.5 µM; in assay [5], greater than 93.7 µM; in [6], greater than 100 µM. Besides, the TGI in [7] was greater than 100 µM; in assay [8], greater than 100 µM; in assay [9], 54.5 µM; in assay [10] it was greater than 82.6 µM.
`Clc1ccc2[nH]cc(-c3nnnn3-c3ccccc3)c2c1`: the GI50 was 14.3 µM in assay [1]; 24.9 µM in assay [2]; 29.4 µM in assay [3]; 11.2 µM in [4]; 8.11 µM in assay [5]; 14 µM in assay [6]. Besides, the GI50 is 8.58 µM in assay [7], 11.9 µM in [8], 11 µM in assay [9] and 16.5 µM in [10]. The total growth inhibition concentration (TGI) in [1] is greater than 100 µM; in assay [2], 71 µM; in assay [3] it was greater than 77 µM; in assay [4], greater than 100 µM; in assay [5], 49.9 µM; in assay [6] it was greater than 78.9 µM. Also, the TGI in [7] was greater than 67.3 µM; in [8] it was greater than 70.9 µM; in assay [9], greater than 53 µM; in [10], 39 µM.
On to `CN1CCOC(c2ccccc2)O1` (stereo not given), for which the TGI in assay [1], in [2], in assay [3], in assay [4], in [5] and in assay [6] was greater than 100 µM in each case. The TGI in assay [7], in assay [8], in assay [9] and in [10] was greater than 100 µM throughout.
With `Oc1cccnc1[Se]`, the TGI in assay [1], in assay [2], in assay [3], in assay [4], in [5] and in assay [6] was greater than 100 µM throughout. Moreover, the TGI in assay [7], in [8], in [9] and in assay [10] was greater than 100 µM throughout.
Consider `Cc1ccc(NC(=O)CCc2cc(C(C)(C)C)nc(=S)[nH]2)cc1C`, for which the TGI in assay [1], in [2], in assay [3], in assay [4], in assay [5] and in [6] was greater than 100 µM throughout. The TGI in assay [7], in assay [8], in [9] and in assay [10] was greater than 100 µM throughout.
On to `COc1ccc(-c2nc3ccc(-c4nc5ccc(N6CCN(c7ccccc7)CC6)cc5[nH]4)cc3[nH]2)cc1OC`, for which the GI50 in assay [1] is 1.66 µM; in assay [2] it was 2.05 µM; in assay [3], 1.65 µM; in assay [4], 1.41 µM; in assay [5] it was 1.77 µM; in [6], 1.2 µM. Besides, the GI50 in assay [7] was 0.366 µM; in assay [8], 1.2 µM; in assay [9], 1.37 µM; in [10], 1.37 µM. For the same compound, the TGI in [1] amounted to 3.24 µM; in assay [2] it was 4.4 µM; in assay [3], 3.44 µM; in assay [4], 3.63 µM; in assay [5] it was 3.66 µM; in assay [6], 3.02 µM. Moreover, the TGI is 2.92 µM in assay [7], 2.68 µM in assay [8], 6.47 µM in assay [9] and 2.81 µM in assay [10].
